This note sets out measurements from patent publication US20220162192A1 (ESCAPE Bio, Inc., priority 2019, published 2022).

Test [1] has as its target T1, Recombinant wild type LRRK2 protein (Homo sapiens, UniProt Q5S007).
T1 construct: purchased Life Technologies PR8604B
The test can be described thus: LanthaScreen Kinase Activity Assay (TR-FRET), wild type LRRK2. It counts as biochemical. Conditions: 25 μM ATP, 400 nM LRRKtide, 2.9 nM kinase, 60 min at room temperature, read-out: LRRK2 WT IC50. The gist of the method: (§1)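 Recombinant wild-type or G2019S LRRK2 (2.9 nM final) phosphorylated fluorescein-LRRKtide (400 nM) with 25 μM ATP in 50 mM Tris pH 8.5, 5 mM MgCl2, 1 mM EGTA, 0.01% Brij-35, 2 mM DTT for 60 min at RT. After EDTA stop, Tb-anti-pERM TR-FRET (520/495 nm ratio) was read. IC50 values came from 11-point, 3-fold compound dilutions.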

In test [2] the target is T2, Recombinant G2019S-LRRK2 protein (Homo sapiens, UniProt Q5S007, G2019S).
T2 construct: purchased Life Technologies PV4881
As to the kind of experiment: LanthaScreen Kinase Activity Assay (TR-FRET), G2019S-LRRK2. Conditions: class symbols; 25 μM ATP, 400 nM LRRKtide, 2.9 nM kinase, 60 min at room temperature. It counts as biochemical. The gist of the method: as §1

The mark [3] stands for this setting: numeric bound instead of class symbol.

Like-named read-outs stand apart in the source and are kept apart here.

T2 sequence (Q5S007 whole entry G2019S): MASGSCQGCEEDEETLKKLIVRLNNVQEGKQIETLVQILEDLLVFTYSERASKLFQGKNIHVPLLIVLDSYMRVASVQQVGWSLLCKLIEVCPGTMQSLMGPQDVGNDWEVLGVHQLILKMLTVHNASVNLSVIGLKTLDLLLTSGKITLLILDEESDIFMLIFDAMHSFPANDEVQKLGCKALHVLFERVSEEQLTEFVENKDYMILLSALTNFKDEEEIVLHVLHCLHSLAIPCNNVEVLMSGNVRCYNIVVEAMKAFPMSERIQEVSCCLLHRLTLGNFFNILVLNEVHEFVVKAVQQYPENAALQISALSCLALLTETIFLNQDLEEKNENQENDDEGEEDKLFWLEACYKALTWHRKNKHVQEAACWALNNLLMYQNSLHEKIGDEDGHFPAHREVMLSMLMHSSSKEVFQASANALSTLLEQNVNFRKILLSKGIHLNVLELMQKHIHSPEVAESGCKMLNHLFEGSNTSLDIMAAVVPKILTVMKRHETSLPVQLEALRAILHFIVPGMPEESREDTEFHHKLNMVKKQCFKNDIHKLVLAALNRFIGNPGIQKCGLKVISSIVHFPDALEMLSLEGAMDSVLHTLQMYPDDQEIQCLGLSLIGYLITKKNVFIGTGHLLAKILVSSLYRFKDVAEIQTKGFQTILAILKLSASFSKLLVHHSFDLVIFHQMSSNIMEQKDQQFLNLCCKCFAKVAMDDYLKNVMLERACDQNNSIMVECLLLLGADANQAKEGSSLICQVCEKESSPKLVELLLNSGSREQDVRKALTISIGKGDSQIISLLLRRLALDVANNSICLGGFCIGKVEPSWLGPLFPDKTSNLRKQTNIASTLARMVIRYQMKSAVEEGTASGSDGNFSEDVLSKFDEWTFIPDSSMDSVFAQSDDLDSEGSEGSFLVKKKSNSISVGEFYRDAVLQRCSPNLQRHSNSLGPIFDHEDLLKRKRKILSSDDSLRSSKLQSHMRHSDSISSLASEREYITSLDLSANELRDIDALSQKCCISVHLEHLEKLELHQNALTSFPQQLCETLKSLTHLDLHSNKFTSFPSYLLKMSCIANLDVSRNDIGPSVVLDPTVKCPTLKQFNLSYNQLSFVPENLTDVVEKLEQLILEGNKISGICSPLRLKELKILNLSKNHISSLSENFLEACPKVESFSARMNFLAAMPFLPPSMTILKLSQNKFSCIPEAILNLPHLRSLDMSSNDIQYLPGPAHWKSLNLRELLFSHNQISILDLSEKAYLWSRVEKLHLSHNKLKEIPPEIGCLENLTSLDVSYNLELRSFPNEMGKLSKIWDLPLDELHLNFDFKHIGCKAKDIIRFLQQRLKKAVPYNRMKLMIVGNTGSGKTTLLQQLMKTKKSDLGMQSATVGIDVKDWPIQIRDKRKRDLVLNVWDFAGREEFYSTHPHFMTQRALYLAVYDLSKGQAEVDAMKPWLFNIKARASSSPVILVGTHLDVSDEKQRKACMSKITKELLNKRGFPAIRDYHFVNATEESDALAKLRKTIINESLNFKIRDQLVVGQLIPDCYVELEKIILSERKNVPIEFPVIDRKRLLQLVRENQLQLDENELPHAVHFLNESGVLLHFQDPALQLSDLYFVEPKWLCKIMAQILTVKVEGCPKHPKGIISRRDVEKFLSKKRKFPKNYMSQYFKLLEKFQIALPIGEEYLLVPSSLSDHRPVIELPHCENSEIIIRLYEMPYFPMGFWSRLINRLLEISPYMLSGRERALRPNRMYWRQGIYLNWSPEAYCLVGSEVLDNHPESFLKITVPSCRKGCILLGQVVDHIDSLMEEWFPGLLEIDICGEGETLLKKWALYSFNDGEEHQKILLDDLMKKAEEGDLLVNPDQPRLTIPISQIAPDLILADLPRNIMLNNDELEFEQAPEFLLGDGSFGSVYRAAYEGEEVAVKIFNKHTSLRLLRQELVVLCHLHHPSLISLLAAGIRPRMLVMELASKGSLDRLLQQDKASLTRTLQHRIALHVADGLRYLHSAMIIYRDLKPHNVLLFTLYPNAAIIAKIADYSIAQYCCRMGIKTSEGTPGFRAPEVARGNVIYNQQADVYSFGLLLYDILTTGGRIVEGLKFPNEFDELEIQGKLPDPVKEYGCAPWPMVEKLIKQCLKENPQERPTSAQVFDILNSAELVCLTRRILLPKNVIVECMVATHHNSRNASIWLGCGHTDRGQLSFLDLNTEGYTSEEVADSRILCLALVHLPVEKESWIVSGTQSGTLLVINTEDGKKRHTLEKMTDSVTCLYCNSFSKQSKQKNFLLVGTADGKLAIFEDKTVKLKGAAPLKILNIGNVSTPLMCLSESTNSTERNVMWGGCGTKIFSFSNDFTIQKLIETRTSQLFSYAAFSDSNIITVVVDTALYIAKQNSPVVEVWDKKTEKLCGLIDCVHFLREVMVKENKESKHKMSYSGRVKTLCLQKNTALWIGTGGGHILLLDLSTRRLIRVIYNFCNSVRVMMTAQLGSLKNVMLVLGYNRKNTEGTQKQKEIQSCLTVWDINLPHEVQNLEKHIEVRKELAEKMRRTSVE
T1 sequence (Q5S007 whole entry): as the sequence (Q5S007 whole entry G2019S) above, with S2019G counted along it

Regarding `Cc1cc2cncn2cc1C(=O)Nc1ccc2[nH]nc(C)c2c1` [Example 145, 7-Methyl-N-(3-methyl-1H-indazol-5-yl)imidazo[1,5-a]pyridine-6-carboxamide], the results for the IC50 in test [1] (class symbols) and in test [2] were 100 to 1000 nM and at most 100 nM, respectively.
The like results for `Cc1cc2cn[nH]c2cc1C(=O)Nc1ccc2[nH]nc(-c3ccccc3)c2c1` [Example 23, 5-Methyl-N-(3-phenyl-1H-indazol-5-yl)-1H-indazole-6-carboxamide] were, in that order, at most 100 nM and at most 100 nM.
On to `Cc1cc2[nH]nnc2c(C)c1C(=O)Nc1ccc2[nH]nc(C)c2c1` [Example 11, 4,6-Dimethyl-N-(3-methyl-1H-indazol-5-yl)-1H-benzo[d][1,2,3]triazole-5-carboxamide], for which the figures for the IC50 in test [1] (class symbols) and in test [2] were 1000 to 10000 nM and 100 to 1000 nM, respectively.
As to `Cc1cc2cnnn2c(C)c1C(=O)Nc1ccc2[nH]nc(-c3ccoc3)c2c1` [Example 150, N-(3-(Furan-3-yl)-1H-indazol-5-yl)-5,7-dimethyl-[1,2,3]triazolo[1,5-a]pyridine-6-carboxamide], the IC50 in test [1] (class symbols) and in test [2] was at most 100 nM each time.
For `COc1cnccc1-c1n[nH]c2ccc(NC(=O)c3c(F)cc4c(cnn4C)c3F)cc12` [Example 103, 4,6-Difluoro-N-(3-(3-methoxypyridin-4-yl)-1H-indazol-5-yl)-1-methyl-1H-indazole-5-carboxamide], the IC50 in test [1] (class symbols) was 100 to 1000 nM; in test [2], at most 100 nM.
On to `Cc1cc2nn[nH]c2cc1C(=O)Nc1ccc2[nH]nc(-c3ccncc3)c2c1` [Example 1], for which the IC50 in test [1] (class symbols) was 100 to 1000 nM; in test [2] it was at most 100 nM.
Consider `Cc1ccccc1-c1n[nH]c2ccc(NC(=O)c3c(F)cc4c(cnn4C)c3F)cc12` [Example 77, 4,6-Difluoro-1-methyl-N-(3-(o-tolyl)-1H-indazol-5-yl)-1H-indazole-5-carboxamide], for which the IC50 in test [1] (class symbols) and in test [2] was 1000 to 10000 nM in each case.
For `Cc1cc2cc[nH]c2cc1C(=O)Nc1ccc2[nH]nc(-c3ccccc3)c2c1` [Example 22, 5-Methyl-N-(3-phenyl-1H-indazol-5-yl)-1H-indole-6-carboxamide], the IC50 in test [1] (class symbols) lay in the range of 1000 to 10000 nM; in test [2], 100 to 1000 nM.
Consider `Cn1ncc2c(F)c(C(=O)Nc3ccc4[nH]nc(-c5ccccc5OC(F)(F)F)c4c3)c(F)cc21` [Example 93, 4,6-Difluoro-1-methyl-N-(3-(2-(trifluoromethoxy)phenyl)-1H-indazol-5-yl)-1H-indazole-5-carboxamide], for which the IC50 is above 10000 nM in test [1] (setting [3]) and 1000 to 10000 nM in test [2].
For `Cn1ncc2c1CCC(C(=O)Nc1ccc3[nH]nc(-c4ccoc4)c3c1)C2` (single isomer, unassigned) [Example 161b], the IC50 was 100 to 1000 nM in test [1] (class symbols) and at most 100 nM in test [2].
Turning to `Cc1cc2cncn2c(C)c1C(=O)Nc1ccc2[nH]nc(-c3ccoc3)c2c1` [Example 151, N-(3-(Furan-3-yl)-1H-indazol-5-yl)-5,7-dimethylimidazo[1,5-a]pyridine-6-carboxamide], the 50% inhibitory concentration (IC50) in test [1] (class symbols) and in test [2] was at most 100 nM in each case.
As for `O=C(Nc1ccc2[nH]nc(-c3ccoc3)c2c1)C1CCc2cncn2C1` (single isomer, unassigned) [Example 173b], the IC50 in test [1] (class symbols) and in test [2] was 1000 to 10000 nM throughout.
`Cn1ncc2c(F)c(C(=O)Nc3ccc4[nH]nc(-c5cncnc5)c4c3)c(F)cc21` [Example 34, 4,6-Difluoro-1-methyl-N-(3-(pyrimidin-5-yl)-1H-indazol-5-yl)-1H-indazole-5-carboxamide]: the IC50 in test [1] (class symbols) is 100 to 1000 nM; in test [2] it was at most 100 nM.
The like results for `Cn1ncc2c(F)c(C(=O)Nc3ccc4[nH]nc(-c5ccncn5)c4c3)c(F)cc21` [Example 73, 4,6-Difluoro-1-methyl-N-(3-(pyrimidin-4-yl)-1H-indazol-5-yl)-1H-indazole-5-carboxamide] were, in that order, at most 100 nM and at most 100 nM.
The corresponding values for `Cc1cc(-c2n[nH]c3ccc(NC(=O)c4c(F)cc5c(cnn5C)c4F)cc23)n(C)n1` [Example 79, N-(3-(1,3-Dimethyl-1H-pyrazol-5-yl)-1H-indazol-5-yl)-4,6-difluoro-1-methyl-1H-indazole-5-carboxamide] are 1000 to 10000 nM and 100 to 1000 nM.
For the compound `O=C(Nc1ccc2[nH]nc(-c3ccoc3)c2c1)c1ccc2snnc2c1` [Example 121, N-(3-(Furan-3-yl)-1H-indazol-5-yl)benzo[d][1,2,3]thiadiazole-5-carboxamide], the IC50 in test [1] (class symbols) and in test [2] was at most 100 nM each time.
On to `Cc1cc2nncn2c(C)c1C(=O)Nc1ccc2[nH]nc(-c3ccoc3)c2c1` [Example 153, N-(3-(Furan-3-yl)-1H-indazol-5-yl)-5,7-dimethyl-[1,2,4]triazolo[4,3-a]pyridine-6-carboxamide], for which the IC50 in test [1] (class symbols) and in test [2] was at most 100 nM in each case.
As for `O=C(Nc1ccc2[nH]nc(-c3ccccc3)c2c1)c1c(Cl)cn2cnnc2c1Cl` [Example 63, 6,8-dichloro-N-(3-phenyl-1H-indazol-5-yl)-[1,2,4]triazolo[4,3-a]pyridine-7-carboxamide], the IC50 in test [1] (class symbols) and in test [2] was at most 100 nM throughout.
Take `COc1ccc(C)c(-c2n[nH]c3ccc(NC(=O)c4c(F)cc5c(cnn5C)c4F)cc23)c1` [Example 90, 4,6-Difluoro-N-(3-(5-methoxy-2-methylphenyl)-1H-indazol-5-yl)-1-methyl-1H-indazole-5-carboxamide]: the IC50 in test [1] (class symbols) is 1000 to 10000 nM; in test [2] it was 100 to 1000 nM.
In the case of `Cc1cn2cncc2cc1C(=O)Nc1ccc2[nH]nc(-c3ccoc3)c2c1` [Example 152, N-(3-(Furan-3-yl)-1H-indazol-5-yl)-6-methylimidazo[1,5-a]pyridine-7-carboxamide], the IC50 in test [1] (class symbols) and in test [2] was at most 100 nM in each case.
For `Cc1nn(C)cc1-c1n[nH]c2ccc(NC(=O)c3c(F)cc4c(cnn4C)c3F)cc12` [Example 80, N-(3-(1,3-Dimethyl-1H-pyrazol-4-yl)-1H-indazol-5-yl)-4,6-difluoro-1-methyl-1H-indazole-5-carboxamide], the IC50 in test [1] (class symbols) and in test [2] was at most 100 nM throughout.
With `Cc1cc(-c2n[nH]c3ccc(NC(=O)c4c(F)cc5c(cnn5C)c4F)cc23)cc(C)n1` [Example 83, N-(3-(2,6-Dimethylpyridin-4-yl)-1H-indazol-5-yl)-4,6-difluoro-1-methyl-1H-indazole-5-carboxamide], the IC50 in test [1] (class symbols) and in test [2] was at most 100 nM in each case.
Take `Cc1cc2c(cnn2C)c(C)c1C(=O)Nc1ccc2[nH]nc(-c3ccoc3)c2c1` [Example 157, N-(3-(Furan-3-yl)-1H-indazol-5-yl)-1,4,6-trimethyl-1H-indazole-5-carboxamide]: the IC50 in test [1] (class symbols) and in test [2] was at most 100 nM throughout.
Regarding `Cn1cc(-c2n[nH]c3ccc(NC(=O)c4c(F)cc5c(cnn5C)c4F)cc23)cn1` [Example 35, 4,6-Difluoro-1-methyl-N-(3-(1-methyl-1H-pyrazol-4-yl)-1H-indazol-5-yl)-1H-indazole-5-carboxamide], the IC50 in test [1] (class symbols) and in test [2] was at most 100 nM throughout.
Take `O=C(Nc1ccc2[nH]nc(-c3ccoc3)c2c1)c1cn2cccnc2n1` [Example 128, N-(3-(Furan-3-yl)-1H-indazol-5-yl)imidazo[1,2-a]pyrimidine-2-carboxamide]: the IC50 in test [1] (class symbols) and in test [2] was 100 to 1000 nM in each case.
For the compound `Cc1cc2c(C)ncn2c(C)c1C(=O)Nc1ccc2[nH]nc(-c3ccoc3)c2c1` [Example 147, N-(3-(Furan-3-yl)-1H-indazol-5-yl)-1,5,7-trimethylimidazo[1,5-a]pyridine-6-carboxamide], the IC50 in test [1] (class symbols) and in test [2] was at most 100 nM in each case.
As for `Cc1cc2[nH]ccc2cc1C(=O)Nc1ccc2[nH]nc(-c3ccccc3)c2c1` [Example 20, 6-Methyl-N-(3-phenyl-1H-indazol-5-yl)-1H-indole-5-carboxamide], the IC50 in test [1] (class symbols) is 100 to 1000 nM; in test [2], at most 100 nM.
Regarding `Cn1ncc2c(F)c(C(=O)Nc3cc4c(-c5ccccc5)n[nH]c4cc3F)c(F)cc21` [Example 143, 4,6-Difluoro-N-(6-fluoro-3-phenyl-1H-indazol-5-yl)-1-methyl-1H-indazole-5-carboxamide], the IC50 in test [1] (class symbols) was 100 to 1000 nM; in test [2] it was at most 100 nM.
Consider `Cn1ncc2c(F)c(C(=O)Nc3ccc4[nH]nc(C5CCOC5)c4c3)c(F)cc21` (stereo not shown) [Example 104, 4,6-Difluoro-1-methyl-N-(3-(tetrahydrofuran-3-yl)-1H-indazol-5-yl)-1H-indazole-5-carboxamide], for which the values for the concentration for half-maximal inhibition (IC50) in test [1] (class symbols) and in test [2] were 1000 to 10000 nM and 100 to 1000 nM, respectively.
The like results for `Cn1ncc2c(F)c(C(=O)Nc3ccc4[nH]nc(N5Cc6ccccc6C5)c4c3)c(F)cc21` [Example 109, 4,6-Difluoro-N-(3-(isoindolin-2-yl)-1H-indazol-5-yl)-1-methyl-1H-indazole-5-carboxamide] were, in that order, 100 to 1000 nM and at most 100 nM.
In the case of `Cn1ncc2c(F)c(C(=O)Nc3ccc4[nH]nc(-c5ccccc5C#N)c4c3)c(F)cc21` [Example 74, N-(3-(2-Cyanophenyl)-1H-indazol-5-yl)-4,6-difluoro-1-methyl-1H-indazole-5-carboxamide], the IC50 was above 10000 nM in test [1] (setting [3]) and 100 to 1000 nM in test [2].
For `Cc1cc(C(=O)Nc2ccc3[nH]nc(-c4ccncc4)c3c2)cc2nn[nH]c12` [Example 13, 7-Methyl-N-(3-(pyridin-4-yl)-1H-indazol-5-yl)-1H-benzo[d][1,2,3]triazole-5-carboxamide], the IC50 in test [1] (class symbols) and in test [2] was 100 to 1000 nM each time.
